# Results as given in patent US4609496A, “Steroid esters of N-(2-halogenoethyl)-N-nitroso-carbamoyl-amino acids and peptides thereof, as well as methods for preparing them” (Stiftung Deutsches Krebsforshungszentrum, priority 1982, dated 1986).
# Assays:
# [1] = Toxicity of the compounds (LD50); type: in vivo; settings: for LD50 at 2160 h: in vivo, period of observation: 90 days (printed with the cortisone ester)
# From the text: Data on the toxicity of the compounds
# rat leukemia L 5222 = experiment: Therapy test using the model of rat leukemia L 5222; type: in vivo; settings: for optimal dose: L 5222
# From the text: In the therapy test using the model of rat leukemia L 5222 (Ivankovic, Zeller, Leukamie L 5222 des Rattenstammes BD IX. Eine durch Athylnitrosoharnstoff induzierte monozytar-myeloische, transplantierbare Form fur zytochemische und chemotherapeutische Studien [Leukemia L 5222 of Rats of Stock BD IX. A monocytic-myeloid, transplantable form induced by ethylnitrosourea for cytochemical and chemotherapeutic studies]. Blut [Blood], 28; 288-292, 1974 and Zeller, Ivankovic, Schmahl, Cancer Research, Vol. 35, 1168-1174, 1975), the cortisone conjugate has good activity. At 176 mg/kg, the total median (replicated experiment!) at 65 days was 3 cured animals out of 6, while with CNU alanine in an equimolar dose with cortisone no cures were attained, with a median survival time of 20 days.
# estrogen receptor = estrogen receptor (Homo sapiens, UniProt P03372); experiment: biochemical; settings: for affinity relative to estradiol (100%): parameter of 50% bonding inhibition of 3H-tagged estradiol
# Chain of estrogen receptor (P03372 whole entry): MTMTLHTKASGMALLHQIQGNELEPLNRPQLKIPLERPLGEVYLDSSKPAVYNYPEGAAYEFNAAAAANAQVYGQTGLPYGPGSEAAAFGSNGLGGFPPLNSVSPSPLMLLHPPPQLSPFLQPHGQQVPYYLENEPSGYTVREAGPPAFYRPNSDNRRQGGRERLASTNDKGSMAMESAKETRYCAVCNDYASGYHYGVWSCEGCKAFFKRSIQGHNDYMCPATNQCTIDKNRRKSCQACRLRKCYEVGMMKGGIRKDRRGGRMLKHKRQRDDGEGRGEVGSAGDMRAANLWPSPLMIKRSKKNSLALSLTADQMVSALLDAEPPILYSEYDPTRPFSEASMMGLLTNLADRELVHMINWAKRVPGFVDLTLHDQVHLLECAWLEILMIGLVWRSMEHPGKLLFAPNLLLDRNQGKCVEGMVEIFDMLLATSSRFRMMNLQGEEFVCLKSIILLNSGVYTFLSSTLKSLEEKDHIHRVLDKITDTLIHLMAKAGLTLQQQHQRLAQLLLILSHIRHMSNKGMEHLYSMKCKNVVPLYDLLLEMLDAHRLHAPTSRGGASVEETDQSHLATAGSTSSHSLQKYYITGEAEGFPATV
# From the text: The estrogen-linked compounds were subjected to an estrogen receptor test (Lebercytosol) (Kranzfelder, Schneider, von Angerer, Schoneberger, J. Cancer Research Chim. Oncol. 97, 167-186 (1980)).
smiles,measurement,setting,value
"C[C@H](NC(=O)N(CCCl)N=O)C(=O)O [CNU alanine, reference compound]",LD50 at 2160 h,[1],40 to 50 mg/kg
same,cures,rat leukemia L 5222; equimolar dose with cortisone,no cures
same,median survival time,rat leukemia L 5222; equimolar dose with cortisone,20 days
CC(NC(=O)N(CCCl)N=O)C(=O)OCC(=O)C1(O)CCC2C3CCC4=CC(=O)CCC4(C)C3C(=O)CC21C [N-(2-chloroethyl)-N-nitroso-carbamoyl-L-alanine-cortisone-21-ester],LD50 at 2160 h,[1],220 to 280 mg/kg
same,reduction in toxicity by linking CNU alanine with cortisone,[1]; relative to CNU alanine,sharp reduction in toxicity (by approximately threefold)
same,cured animals,rat leukemia L 5222; 176 mg/kg,3 cured animals out of 6
same,total median (survival),"rat leukemia L 5222; 176 mg/kg, replicated experiment",65 days
same,activity in therapy test,rat leukemia L 5222; rat leukemia L 5222,good activity
C[C@H](NC(=O)N(CCCl)N=O)C(=O)Oc1ccc2c(c1)CC[C@@H]1[C@@H]2CC[C@]2(C)[C@@H](O)CC[C@@H]12 [N-(2-chloroethyl)-N-nitroso-carbamoyl-L-alanine-estradiol-3-ester],optimal dose,rat leukemia L 5222,279 mg/kg
same,cures,rat leukemia L 5222; optimal dose 279 mg/kg,2 cures
same,median survival time,rat leukemia L 5222; optimal dose 279 mg/kg,49 days
same,IC50,estrogen receptor,50 nM
same,affinity relative to estradiol (100%),estrogen receptor,16%
C[C@H](NC(=O)N(CCCl)N=O)C(=O)Oc1ccc2c(c1)CC[C@@H]1[C@@H]2CC[C@]2(C)C(=O)CC[C@@H]12 [N-(2-chloroethyl)-N-nitroso-carbamoyl-L-alanine-estrone-ester],optimal dose,rat leukemia L 5222,351 mg/kg
same,toxicity measured in tumor-bearing animals,rat leukemia L 5222; compared with the cortisone derivative,even lower than with the cortisone derivative
same,total median (survival),rat leukemia L 5222; optimal dose 351 mg/kg,43 days
same,IC50,estrogen receptor,190 nM
same,affinity relative to estradiol (100%),estrogen receptor,4%
